Reference: ChEMBL document CHEMBL4041469, “The replacement of the 2-methoxy substituent of N-((6,6-diphenyl-1,4-dioxan-2-yl)methyl)-2-(2-methoxyphenoxy)ethan-1-amine improves the selectivity for 5-HT1A receptor over α1-adrenoceptor and D2-like receptor subtypes” (Eur J Med Chem, 2017)
Activity calls are given as the source filed them. The rule behind the calls is not given here.

How the values were obtained:
[1] = target: T1, Alpha-1D adrenergic receptor (Homo sapiens, UniProt P25100); experiment: Displacement of [3H]prazosin from recombinant human alpha-1d adrenergic receptor expressed in CHO cell membranes after 30 mins by liquid scintillation counting method
T1 sequence (P25100 whole entry): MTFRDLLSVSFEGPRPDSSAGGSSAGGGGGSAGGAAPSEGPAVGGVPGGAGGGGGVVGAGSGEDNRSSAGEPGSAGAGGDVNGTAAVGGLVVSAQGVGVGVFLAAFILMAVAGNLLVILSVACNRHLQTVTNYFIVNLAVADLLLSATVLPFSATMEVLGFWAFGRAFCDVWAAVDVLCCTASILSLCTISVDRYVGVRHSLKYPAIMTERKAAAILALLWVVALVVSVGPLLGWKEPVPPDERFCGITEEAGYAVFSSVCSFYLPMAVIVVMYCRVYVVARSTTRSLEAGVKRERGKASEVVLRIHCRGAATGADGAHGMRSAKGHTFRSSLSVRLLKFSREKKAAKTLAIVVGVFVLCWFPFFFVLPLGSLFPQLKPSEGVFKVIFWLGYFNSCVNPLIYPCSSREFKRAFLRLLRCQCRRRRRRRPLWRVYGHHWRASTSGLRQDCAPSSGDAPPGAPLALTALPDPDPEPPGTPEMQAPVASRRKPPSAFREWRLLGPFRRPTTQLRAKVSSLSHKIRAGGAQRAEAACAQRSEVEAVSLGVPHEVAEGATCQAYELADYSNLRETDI

Mus musculus [2] = experiment: Anxiolytic activity in CD-1 mouse assessed as increase in time spent in light area at 2.5 mg/kg, ip administered 30 mins prior to test by light/dark exploration test; format: functional, organism-based
Mus musculus [3] = experiment: Anxiolytic activity in CD-1 mouse assessed as increase in latency time to enter dark area at 2.5 mg/kg, ip administered 30 mins prior to test by light/dark exploration test; format: functional, organism-based
[4] = target: T2, 5-hydroxytryptamine receptor 1A (Homo sapiens) (UniProt P08908); experiment: Agonist activity at recombinant human 5HT1A receptor expressed in human HeLa cell membranes assessed as stimulation of [35S]GTPgammaS binding preincubated for 20 mins followed by [35S]GTPgammaS addition measured after 30 mins by liquid scintillation counting method; format: functional
T2 sequence (whole entry): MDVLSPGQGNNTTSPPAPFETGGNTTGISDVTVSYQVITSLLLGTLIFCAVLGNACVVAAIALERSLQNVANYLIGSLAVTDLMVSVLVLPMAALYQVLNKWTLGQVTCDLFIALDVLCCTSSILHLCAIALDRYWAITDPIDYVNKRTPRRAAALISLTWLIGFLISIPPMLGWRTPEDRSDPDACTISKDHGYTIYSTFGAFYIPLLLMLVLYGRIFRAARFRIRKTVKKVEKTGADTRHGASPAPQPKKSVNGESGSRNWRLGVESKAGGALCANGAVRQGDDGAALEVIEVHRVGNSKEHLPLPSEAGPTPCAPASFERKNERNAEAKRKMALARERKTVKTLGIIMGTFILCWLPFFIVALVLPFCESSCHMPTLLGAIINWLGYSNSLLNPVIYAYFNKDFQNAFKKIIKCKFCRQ

[5] = Selectivity index, ratio of Ki for recombinant human alpha-1b adrenergic receptor expressed in CHO cell membranes to Ki for recombinant human 5HT1A receptor expressed in human HeLa cell membranes
D(2) dopamine receptor = D(2) dopamine receptor (Homo sapiens, UniProt P14416); experiment: Displacement of [3H]N-methylspiperone from recombinant human D2 receptor expressed in HEK293 cell membranes after 1 hr by liquid scintillation counting method
Sequence of D(2) dopamine receptor (P14416 whole entry): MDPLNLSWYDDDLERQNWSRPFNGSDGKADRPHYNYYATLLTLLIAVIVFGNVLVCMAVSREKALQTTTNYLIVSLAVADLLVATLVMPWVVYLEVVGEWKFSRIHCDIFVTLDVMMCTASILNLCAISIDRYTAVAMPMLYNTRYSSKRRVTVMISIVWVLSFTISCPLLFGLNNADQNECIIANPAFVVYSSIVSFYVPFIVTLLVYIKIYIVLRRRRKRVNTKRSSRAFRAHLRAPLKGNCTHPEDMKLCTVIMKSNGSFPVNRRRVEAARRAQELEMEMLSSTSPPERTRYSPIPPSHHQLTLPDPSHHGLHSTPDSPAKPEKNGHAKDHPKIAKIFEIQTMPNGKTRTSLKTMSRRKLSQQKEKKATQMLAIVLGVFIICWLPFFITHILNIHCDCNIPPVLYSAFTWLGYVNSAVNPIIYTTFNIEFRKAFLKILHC

D(3) dopamine receptor = D(3) dopamine receptor (Homo sapiens, UniProt P35462); experiment: Displacement of [3H]N-methylspiperone from recombinant human D3 receptor expressed in HEK293 cell membranes after 1 hr by liquid scintillation counting method
Sequence of D(3) dopamine receptor (P35462 whole entry): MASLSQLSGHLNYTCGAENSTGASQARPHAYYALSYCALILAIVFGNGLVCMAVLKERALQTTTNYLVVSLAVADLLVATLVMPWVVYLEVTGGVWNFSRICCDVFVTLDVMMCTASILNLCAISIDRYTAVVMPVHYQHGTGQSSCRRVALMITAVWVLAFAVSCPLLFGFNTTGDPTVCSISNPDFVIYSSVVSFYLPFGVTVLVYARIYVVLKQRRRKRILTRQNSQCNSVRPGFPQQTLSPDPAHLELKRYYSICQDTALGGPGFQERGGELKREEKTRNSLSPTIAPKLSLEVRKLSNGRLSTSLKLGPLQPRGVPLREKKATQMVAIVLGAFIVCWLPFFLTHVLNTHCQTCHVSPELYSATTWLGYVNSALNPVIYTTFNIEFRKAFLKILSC

[6] = Selectivity index, ratio of Ki for recombinant human D3 receptor expressed in HEK293 cell membranes to Ki for recombinant human 5HT1A receptor expressed in human HeLa cell membranes
[7] = Selectivity index, ratio of Ki for recombinant human D2 receptor expressed in HEK293 cell membranes to Ki for recombinant human 5HT1A receptor expressed in human HeLa cell membranes
[8] = Selectivity index, ratio of Ki for recombinant human D4 receptor expressed in HEK293 cell membranes to Ki for recombinant human 5HT1A receptor expressed in human HeLa cell membranes
D(4) dopamine receptor = target: T3, D(4) dopamine receptor (Homo sapiens, UniProt P21917); experiment: Displacement of [3H]N-methylspiperone from recombinant human D4 receptor expressed in HEK293 cell membranes after 1 hr by liquid scintillation counting method
T3 sequence (P21917 whole entry): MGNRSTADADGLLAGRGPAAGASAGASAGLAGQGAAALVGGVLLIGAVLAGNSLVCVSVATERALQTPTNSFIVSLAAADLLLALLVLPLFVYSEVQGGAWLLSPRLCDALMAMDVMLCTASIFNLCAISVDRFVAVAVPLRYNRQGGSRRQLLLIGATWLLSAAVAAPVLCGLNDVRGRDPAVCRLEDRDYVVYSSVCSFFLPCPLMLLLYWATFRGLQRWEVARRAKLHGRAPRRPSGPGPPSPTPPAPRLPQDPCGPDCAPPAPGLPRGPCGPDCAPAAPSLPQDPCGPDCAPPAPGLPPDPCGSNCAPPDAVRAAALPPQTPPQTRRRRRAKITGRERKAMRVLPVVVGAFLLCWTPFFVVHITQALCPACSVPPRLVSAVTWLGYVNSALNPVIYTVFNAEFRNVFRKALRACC

[9] = Selectivity index, ratio of Ki for recombinant human alpha-1d adrenergic receptor expressed in CHO cell membranes to Ki for recombinant human 5HT1A receptor expressed in human HeLa cell membranes
[10] = Selectivity index, ratio of Ki for recombinant human alpha-1a adrenergic receptor expressed in CHO cell membranes to Ki for recombinant human 5HT1A receptor expressed in human HeLa cell membranes
[11] = target: T2, 5-hydroxytryptamine receptor 1A (Homo sapiens); experiment: Agonist activity at recombinant human 5HT1A receptor expressed in human HeLa cell membranes assessed as stimulation of [35S]GTPgammaS binding up to 10 uM preincubated for 20 mins followed by [35S]GTPgammaS addition measured after 30 mins by liquid scintillation counting method relative to 5-HT; format: functional
[12] = target: T4, Alpha-1A adrenergic receptor (Homo sapiens, UniProt P35348); experiment: Displacement of [3H]prazosin from recombinant human alpha-1a adrenergic receptor expressed in CHO cell membranes after 30 mins by liquid scintillation counting method
T4 sequence (P35348 whole entry): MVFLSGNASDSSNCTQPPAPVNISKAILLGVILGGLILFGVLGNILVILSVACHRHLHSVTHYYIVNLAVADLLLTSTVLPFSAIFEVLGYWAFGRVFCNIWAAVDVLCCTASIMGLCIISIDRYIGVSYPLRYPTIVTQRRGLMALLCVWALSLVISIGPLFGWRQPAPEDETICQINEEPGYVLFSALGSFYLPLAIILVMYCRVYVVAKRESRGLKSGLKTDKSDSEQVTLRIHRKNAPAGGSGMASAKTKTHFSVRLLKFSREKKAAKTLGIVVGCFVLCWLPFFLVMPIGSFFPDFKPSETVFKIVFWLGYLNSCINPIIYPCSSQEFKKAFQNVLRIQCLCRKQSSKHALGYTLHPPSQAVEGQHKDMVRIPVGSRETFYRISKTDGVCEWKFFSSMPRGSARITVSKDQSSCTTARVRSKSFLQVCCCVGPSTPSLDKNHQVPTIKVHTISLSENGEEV

[13] = target: T5, 5-hydroxytryptamine receptor 1A (Homo sapiens, UniProt P08908); experiment: Displacement of [3H]8-OH-DPAT from recombinant human 5HT1A receptor expressed in human HeLa cell membranes after 30 mins by liquid scintillation counting method
T5 sequence (P08908 whole entry): T2 sequence (whole entry)

[14] = target: T6, Alpha-1B adrenergic receptor (Homo sapiens, UniProt P35368); experiment: Displacement of [3H]prazosin from recombinant human alpha-1b adrenergic receptor expressed in CHO cell membranes after 30 mins by liquid scintillation counting method
T6 sequence (P35368 whole entry): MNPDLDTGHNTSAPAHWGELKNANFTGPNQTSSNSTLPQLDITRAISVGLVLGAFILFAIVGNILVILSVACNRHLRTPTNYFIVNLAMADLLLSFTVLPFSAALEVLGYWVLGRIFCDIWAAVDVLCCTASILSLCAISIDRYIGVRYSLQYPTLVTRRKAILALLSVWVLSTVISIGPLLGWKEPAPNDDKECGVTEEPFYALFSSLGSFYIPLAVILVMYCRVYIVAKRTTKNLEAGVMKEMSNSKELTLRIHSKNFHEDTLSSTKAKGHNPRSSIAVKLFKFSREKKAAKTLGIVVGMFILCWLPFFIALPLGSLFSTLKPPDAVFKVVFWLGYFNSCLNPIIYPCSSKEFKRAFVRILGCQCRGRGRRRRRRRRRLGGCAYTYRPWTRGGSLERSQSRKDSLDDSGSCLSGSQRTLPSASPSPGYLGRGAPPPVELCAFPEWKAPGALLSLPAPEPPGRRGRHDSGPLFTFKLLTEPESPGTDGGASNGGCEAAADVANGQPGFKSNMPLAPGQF

Mus musculus [15] = experiment: Anxiolytic activity in ip dosed CD-1 mouse assessed as increase in time spent in light area administered 30 mins prior to test by light/dark exploration test; format: functional, organism-based
Mus musculus [16] = experiment: Anxiolytic activity in CD-1 mouse assessed as increase in time spent in light area at 30 mg/kg, ip administered 30 mins prior to test in presence of 5HT1A receptor antagonist WAY100135 by light/dark exploration test; format: functional, organism-based
Mus musculus [17] = experiment: Anxiolytic activity in ip dosed CD-1 mouse assessed as increase in latency time to enter dark area administered 30 mins prior to test by light/dark exploration test; format: functional, organism-based

Structure (SMILES) | Ki [1] | pD2 [4] | Emax [11] | Ki [12] | Ki [13] | Ki [14] | other results
O=C1CC2(CCCC2)CC(=O)N1CCN1CCN(c2ccccc2O)CC1 | 16.2 nM | – | – | – | – | – | –
CN1C(=O)CN=C(c2ccccc2)c2cc(Cl)ccc21 | – | – | – | – | – | – | Activity (Mus musculus [2]): Active; Activity (Mus musculus [3]): Active
COc1cccc(OC)c1OCCNC[C@@H]1COCC(c2ccccc2)(c2ccccc2)O1 | – | 5.88 | – | – | – | – | –
COc1cccc(OC)c1OCCNC[C@H]1COCC(c2ccccc2)(c2ccccc2)O1 | – | 8.3 | – | – | – | – | –
COc1ccccc1N1CCN(CCN2C(=O)CC3(CCCC3)CC2=O)CC1 | – | 9.27 | – | – | – | – | –
COc1ccccc1OCCNC[C@@H]1COCC(c2ccccc2)(c2ccccc2)O1 | – | 7.7 | – | – | – | – | –
COc1ccccc1OCCNC[C@H]1COCC(c2ccccc2)(c2ccccc2)O1 | – | 9.19 | – | – | – | – | –
COc1ccccc1OCCNCC1COCC(c2ccccc2)(c2ccccc2)O1 (racemic) | – | 9.4 | – | – | – | – | Ratio Ki [5]: 85; Ki (D(2) dopamine receptor): 12.3 nM; Ki (D(3) dopamine receptor): 13.2 nM; Ratio Ki [6]: 20; Ratio Ki [7]: 19; Ratio Ki [8]: 13; Ki (D(4) dopamine receptor): 8.32 nM; Ratio Ki [9]: 2; Ratio Ki [10]: 42
O=[N+]([O-])c1ccccc1OCCNCC1COCC(c2ccccc2)(c2ccccc2)O1 (racemic) | 6.61 nM | 8.93 | 82.5 to 82.6% | 117 nM | 0.562 nM | 251 nM | –
Cc1ccccc1OCCNCC1COCC(c2ccccc2)(c2ccccc2)O1 (racemic) | 5.01 nM | 8.73 | 59.7% | 170 nM | 1.12 nM | 178 nM | –
COCOc1ccccc1OCCNCC1COCC(c2ccccc2)(c2ccccc2)O1 (racemic) | 79.4 nM | 9.41 | 62.8% | 282 nM | 0.631 nM | 288 nM | Activity (Mus musculus [15]): Dose-dependent effect; Ratio Ki [5]: 457; Ki (D(2) dopamine receptor): 105 nM; Activity (Mus musculus [16]): inactive; Ki (D(3) dopamine receptor): 66.1 nM; Ratio Ki [6]: 105; Ratio Ki [7]: 166; Ratio Ki [8]: 81; Activity (Mus musculus [17]): Dose-dependent effect; Ki (D(4) dopamine receptor): 51.3 nM; Ratio Ki [9]: 126; Ratio Ki [10]: 447
Clc1ccccc1OCCNCC1COCC(c2ccccc2)(c2ccccc2)O1 (racemic) | 5.89 nM | 8.7 | 66% | 115 nM | 0.794 nM | 120 nM | –
COc1ccccc1OCCNCC1COC(c2ccccc2)(c2ccccc2)CO1 (racemic) | – | – | – | – | 7.59 nM | – | –
c1ccc(OCCNCC2COC(c3ccccc3)(c3ccccc3)CO2)cc1 (racemic) | – | – | – | – | 37.2 nM | – | –
Oc1ccccc1OCCNCC1COCC(c2ccccc2)(c2ccccc2)O1 (racemic) | 77.6 nM | 7.8 | 65.6% | 195 nM | 0.692 nM | 372 nM | Ki (D(2) dopamine receptor): 15.5 nM; Ki (D(3) dopamine receptor): 33.9 nM; Ratio Ki [6]: 49; Ratio Ki [7]: 22; Ratio Ki [8]: 53; Ki (D(4) dopamine receptor): 36.3 nM; Ratio Ki [9]: 112
COc1cccc(OC)c1OCCNCC1COC(c2ccccc2)(c2ccccc2)CO1 (racemic) | – | – | – | – | 229 nM | – | –
c1ccc(C2(c3ccccc3)COCC(CNCCOc3ccccn3)O2)cc1 (racemic) | 5.5 nM | 8.02 | 63.9% | 155 nM | 0.891 nM | 115 nM | –
COc1cccc(OC)c1OCCNCC1COCC(c2ccccc2)(c2ccccc2)O1 (racemic) | – | 8.28 | – | – | – | – | –
COc1ccccc1OCCNC[C@@H]1COC[C@H](c2ccccc2)O1 (racemic) | – | – | 78.1% | – | – | – | –
COc1ccccc1OCCNC[C@@H]1CO[C@H](c2ccccc2)CO1 (racemic) | – | 7.88 | 85.5% | – | – | – | –
